The values below come from paper PMC8228075, “In Vitro and In Silico Characterization of G-Protein Coupled Receptor (GPCR) Targets of Phlorofucofuroeckol-A and Dieckol” (Marine Drugs, 2021).

Type in all cases: cell-based
For assay [1], the target named is T1, Alpha-2C adrenergic receptor (hα2CAR) (Homo sapiens, UniProt P18825).
T1 construct: host or cells: CHO cells
T1 sequence (P18825 1-462): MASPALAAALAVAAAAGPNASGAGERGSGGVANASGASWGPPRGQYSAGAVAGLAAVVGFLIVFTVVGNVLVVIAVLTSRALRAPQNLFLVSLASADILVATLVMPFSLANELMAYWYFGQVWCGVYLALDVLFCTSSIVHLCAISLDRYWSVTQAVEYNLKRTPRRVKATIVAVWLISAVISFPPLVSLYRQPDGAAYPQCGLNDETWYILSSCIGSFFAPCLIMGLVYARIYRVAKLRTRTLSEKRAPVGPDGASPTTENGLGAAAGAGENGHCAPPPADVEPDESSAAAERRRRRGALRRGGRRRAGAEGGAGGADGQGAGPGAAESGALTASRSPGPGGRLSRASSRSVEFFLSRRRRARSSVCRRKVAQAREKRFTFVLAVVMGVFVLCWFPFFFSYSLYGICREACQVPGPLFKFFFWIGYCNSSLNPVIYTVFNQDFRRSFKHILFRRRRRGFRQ
The assay can be described thus: hα2CAR functional antagonist assay (cAMP, HTRF, CHO cells). Conditions: read-out: Antagonist Effect. How it is done: (§1) The in-house assay protocol and experimental conditions are reported in our previous reports. The functional effect of dieckol and PFF-A was characterized based on their modulation effect on cytosolic Ca^2+ ion mobilization using a fluorimetric detection method or by measuring their effect on cAMP modulation using homogeneous time-resolved fluorescence (HTRF) detection.
(§2) Functional activity of phlorotannins over hA2AR, hα2CAR, hCB1R, GLP-1R, and h5-HT1BR was determined by measuring their effects on cAMP production by the HTRF detection method using transected cells expressing human cloned receptors.
After 10 min at 37 °C, the cells were lysed and the fluorescence acceptor (D2-labeled cAMP) and fluorescence donor (anti-cAMP antibody labeled with europium cryptate) were added.
On the technique in general: In TR-FRET formats the signal depends on donor and acceptor labels being close together.

The target of assay [2] is T2, Glucagon-like peptide-1 receptor (GLP-1) (Mus musculus, UniProt O35659).
T2 construct: mouse GLP-1 receptor-expressed βTC6 cells; host or cells: βTC6 cells
T2 sequence (O35659 22-463): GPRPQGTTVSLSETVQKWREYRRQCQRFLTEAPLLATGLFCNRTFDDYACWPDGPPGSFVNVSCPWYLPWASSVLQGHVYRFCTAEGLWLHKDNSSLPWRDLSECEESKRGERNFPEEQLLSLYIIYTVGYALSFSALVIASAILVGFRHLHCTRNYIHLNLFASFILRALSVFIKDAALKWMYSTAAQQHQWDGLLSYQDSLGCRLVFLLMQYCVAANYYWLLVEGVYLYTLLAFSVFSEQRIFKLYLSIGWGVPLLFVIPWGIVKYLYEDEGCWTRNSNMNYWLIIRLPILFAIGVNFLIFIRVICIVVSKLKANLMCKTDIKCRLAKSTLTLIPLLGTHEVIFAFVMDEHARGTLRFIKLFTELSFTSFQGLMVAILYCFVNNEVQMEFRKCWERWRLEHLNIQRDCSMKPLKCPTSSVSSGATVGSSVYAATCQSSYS
The assay can be described thus: GLP-1R functional antagonist assay (cAMP, HTRF, βTC6 cells). Conditions: for Antagonist Effect: % inhibition of control response to 0.3 nM GLP-1(7–37); for IC50: antagonist effect, mean ± SD, n = 3; for inhibition at 12.5 µM / inhibition at 25 µM / inhibition at 100 µM: read-out: Antagonist Effect. How it is done: as §1, §2
(§3) The HBSS buffer (Invitrogen) complemented with 20 mM HEPES (pH 7.4) and 500 µM IBMX was used to suspend and distribute the βTC6 cells at a density of 1.5x10^4 cells/well. The plate was then incubated for 10 min at RT in the presence of HBSS (basal and stimulated control), the test compound, or the reference agonist and antagonist. […] Following incubation, the cells were lysed and the fluorescence acceptor (D2-labeled cAMP) and fluorescence donor (anti-cAMP antibody labeled with europium cryptate) were added.

For assay [3], the target named is T2, Glucagon-like peptide-1 receptor (GLP-1). The assay can be described thus: GLP-1R functional agonist assay (cAMP, HTRF, βTC6 cells). Conditions: 100 µM; % of control response to 100 nM GLP-1(7–37). On the procedure: as §1, §2, §3
The target in assay [4] is T3, Cannabinoid receptor 1 (CB1R) (Homo sapiens, UniProt P21554).
T3 construct: host or cells: CHO cells
Put plainly: hCB1R functional antagonist assay (cAMP, HTRF, CHO cells). The conditions noted are these: CHO, read-out: Antagonist Effect. How it is done: as §1, §2
The transfected CHO cells were suspended in HBSS buffer (Invitrogen) complemented with 20 mM HEPES (pH 7.4). […] After 30 min of incubation at 37 °C, the cells were lysed and the fluorescence acceptor (D2-labeled cAMP) and fluorescence donor (anti-cAMP antibody labeled with europium cryptate) were added.

For assay [5], the target named is h5-HT1BR (Homo sapiens, UniProt P28222). The assay can be described thus: h5-HT1BR functional antagonist assay (cAMP, HTRF, Hela cells). Conditions: HeLa, read-out: Antagonist Effect. On the procedure: as §1, §2
Concisely, a plasmid containing the GPCR gene of interest (5-HT1B) was transfected into Hela cells. The resulting stable transfectants were suspended in HBSS buffer (Invitrogen, Carlsbad, CA, USA) containing 20 mM HEPES (pH 7.4), […], 1 mg/mL glucose, and 500 μM IBMX and distributed in microplates at a density of 2 × 10^4 cells/well. […] Then, the cells were lysed and a fluorescence acceptor (D2-labeled cAMP) and fluorescence donor (anti-cAMP antibody with europium cryptate) were added following 60 min incubation at RT.

h5-HT1BR, sequence (P28222 whole entry): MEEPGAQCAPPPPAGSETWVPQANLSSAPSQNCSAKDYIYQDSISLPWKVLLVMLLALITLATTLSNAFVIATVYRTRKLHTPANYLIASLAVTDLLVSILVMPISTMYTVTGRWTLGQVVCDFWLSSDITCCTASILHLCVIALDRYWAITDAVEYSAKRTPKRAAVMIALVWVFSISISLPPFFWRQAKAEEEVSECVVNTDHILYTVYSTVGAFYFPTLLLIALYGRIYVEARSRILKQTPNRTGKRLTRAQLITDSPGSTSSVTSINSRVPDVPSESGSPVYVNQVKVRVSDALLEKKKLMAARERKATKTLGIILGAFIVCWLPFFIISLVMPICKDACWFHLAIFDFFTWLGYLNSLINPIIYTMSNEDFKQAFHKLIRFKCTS
T3 sequence (P21554 whole entry): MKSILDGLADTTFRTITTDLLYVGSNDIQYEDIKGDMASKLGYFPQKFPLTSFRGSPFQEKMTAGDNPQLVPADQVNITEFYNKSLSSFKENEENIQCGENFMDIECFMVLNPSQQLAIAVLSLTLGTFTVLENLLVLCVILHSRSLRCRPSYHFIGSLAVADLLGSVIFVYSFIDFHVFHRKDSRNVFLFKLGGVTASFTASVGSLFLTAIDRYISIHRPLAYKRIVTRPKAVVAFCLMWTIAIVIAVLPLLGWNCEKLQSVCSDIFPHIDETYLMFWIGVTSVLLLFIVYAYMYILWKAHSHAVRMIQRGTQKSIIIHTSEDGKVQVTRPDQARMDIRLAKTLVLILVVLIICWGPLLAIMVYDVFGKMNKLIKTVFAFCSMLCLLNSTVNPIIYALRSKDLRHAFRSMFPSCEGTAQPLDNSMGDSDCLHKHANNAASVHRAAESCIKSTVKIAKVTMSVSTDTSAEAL

In the case of `Oc1cc(O)cc(Oc2c(O)cc(O)c3c2Oc2c(O)cc(Oc4c(O)cc(Oc5c(O)cc(O)c6c5Oc5c(O)cc(O)cc5O6)cc4O)cc2O3)c1` [Dieckol, dieckol], the inhibition at 100 µM in assay [1] was -1.2 ± 6.08%; in assay [2] it was 101 ± 8.2%; in assay [4] it was 159 ± 17.8%; in assay [5], -7.3 ± 3.96%. The “Antagonist Effect” value in assay [2] (25 µM) stood at 21.23 ± 7.31%; in assay [2] (50 µM), 53.80 ± 3.12%; in assay [2] (100 µM) it was 101.0 ± 8.20%. The molecule further showed a half-inhibitory concentration (IC50) in assay [2] of 47.2 ± 2.46 µM. In addition, the inhibition at 12.5 µM in assay [2] amounted to 17.9 ± 6.32%. For the same molecule, the inhibition at 25 µM in assay [2] turned out to be 21.2%. For the same molecule, in assay [3], the “Agonist Effect” value is −16.3 ± 1.13%. In addition, in assay [5], the inhibition at 200 µM is -8.1 ± 0.85%.

Take `Oc1cc(O)cc(Oc2c(O)cc(O)c3c2Oc2c(O)cc4oc5c(Oc6cc(O)cc(O)c6)c(O)cc(O)c5c4c2O3)c1` [PFF-A, phlorofucofuroeckol-A]: the inhibition at 100 µM in assay [1] was 19.2 ± 9.76%. The “Antagonist Effect” value in assay [2] (25 µM) is given as 57.37 ± 1.15%. In addition, the “Antagonist Effect” value in assay [2] (50 µM) turned out to be 83.87 ± 2.03%. Also, in assay [2], the IC50 stood at 21.6 ± 2.16 µM, the inhibition at 12.5 µM came to 25.6 ± 13.1%, the inhibition at 25 µM was found to be 57.4% and the inhibition at 100 µM turned out to be 106 ± 1.27%. Also, in assay [2] (from IC50 values, GLP-1R antagonist effect), the “potency relative to dieckol” value is given as “two-fold higher”. Moreover, the “Agonist Effect” value in assay [3] is listed as −15.5 ± 2.55%. In assay [4], the inhibition at 100 µM is 21.4 ± 0.49%. In assay [5], the inhibition at 100 µM was -18.5 ± 2.69% and the inhibition at 200 µM is -35.5 ± 4.38%.

By IC50 is commonly meant the concentration at which inhibition is half-maximal. Read a low IC50 as inhibition by little substance.
